From patent US10471046B2, “Method for treating, preventing, or reducing the risk of skin infection” (Melinta Subsidiary Corp., priority 2014, dated 2019)
In brackets after ≈: the same amount, converted by molar mass. Like-named read-outs stand apart in the source and are kept apart here.

System: S. aureus
Assay: Minimum inhibitory concentrations (MICs) for S. aureus of exemplary compounds (Table 2)
Format: cell-based
Conditions: Staphylococcus aureus, read-out: MICs
How it was run: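 MICs (μg/mL) against S. aureus come from microtiter-tray dilution susceptibility testing per NCCLS M7-A5, comparing growth with and without compound.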

[1] = minimum inhibitory concentrations for S. aureus

MIC [1] [µg/mL] | SMILES | MIC [µg/mL]
8 (≈ 18.7 µM) | CC(=O)NC[C@H]1CN(c2ccc(-c3ccc([C@H](CO)N4CCC4)cc3)c(F)c2)C(=O)O1 [Compound 1063, N-{3-[4′-(1-(R)-Azetidin-1-yl-2-hydroxy-ethyl)-2-fluoro-biphenyl-4-yl]-2-oxo-oxazolidin-5-(S)-ylmethyl}-acetamide] | –
2 (≈ 4.51 µM) | CC(=O)NC[C@H]1CN(c2ccc(-c3ccc(CN4CCSCC4)cc3)c(F)c2)C(=O)O1 [Compound 1064, N-[3-(2-Fluoro-4′-thiomorpholin-4-ylmethyl-biphenyl-4-yl)-2-oxo-oxazolidin-5-(S)-ylmethyl]-acetamide] | –
2 (≈ 4.35 µM) | CC(=O)NC[C@H]1CN(c2ccc(-c3ccc(CN4CC[S+]([O-])CC4)cc3)c(F)c2)C(=O)O1 [Compound 1065, N-{3-[2-Fluoro-4′-(1-oxo-1 lambda*4*-thiomorpholin-4-ylmethyl)-biphenyl-4-yl]-2-oxo-oxazolidin-5-(S)-ylmethyl}-acetamide] | –
1 (≈ 2.37 µM) | CC(=O)NC[C@H]1CN(c2ccc(-c3ccc(Cn4ccnc4C)cc3)c(F)c2)C(=O)O1 [Compound 1066, N-{3-[2-Fluoro-4′-(2-methyl-imidazol-1-ylmethyl)-biphenyl-4-yl]-2-oxo-oxazolidin-5-(S)-ylmethyl}-acetamide] | –
1 (≈ 2.37 µM) | CC(=O)NC[C@H]1CN(c2ccc(-c3ccc(Cn4cncc4C)cc3)c(F)c2)C(=O)O1 [Compound 1067, N-{3-[2-Fluoro-4′-(5-methyl-imidazol-1-ylmethyl)-biphenyl-4-yl]-2-oxo-oxazolidin-5-(S)-ylmethyl}-acetamide] | –
1 (≈ 2.29 µM) | CC(=O)NC[C@H]1CN(c2ccc(-c3ccc(Cn4cc(C)nc4C)cc3)c(F)c2)C(=O)O1 [Compound 1068, N-{3-[4′-(2,4-Dimethyl-imidazol-1-ylmethyl)-2-fluoro-biphenyl-4-yl]-2-oxo-oxazolidin-5-(S)-ylmethyl}-acetamide] | –
1 (≈ 2.36 µM) | CC(=O)NC[C@H]1CN(c2ccc(-c3ccc(Cn4cnc(N)n4)cc3)c(F)c2)C(=O)O1 [Compound 1069, N-{3-[4′-(3-Amino-[1,2,4]triazol-1-ylmethyl)-2-fluoro-biphenyl-4-yl]-2-oxo-oxazolidin-5-(S)-ylmethyl}-acetamide] | –
0.25 (≈ 0.612 µM) | CC(=O)NC[C@H]1CN(c2ccc(-c3ccc(Cn4cccc4)nc3)c(F)c2)C(=O)O1 [Compound 1071, N-{3-[3-Fluoro-4-(6-pyrrol-1-ylmethyl-pyridin-3-yl)-phenyl]-2-oxo-oxazolidin-5-(S)-ylmethyl}-acetamide] | –
1 (≈ 2.44 µM) | CC(=O)NC[C@H]1CN(c2ccc(-c3ccc(Cn4cncn4)nc3)c(F)c2)C(=O)O1 [Compound 1072, N-{3-[3-Fluoro-4-(6-[1,2,4]triazol-1-ylmethyl-pyridin-3-yl)-phenyl]-2-oxo-oxazolidin-5-(S)-ylmethyl}-acetamide] | –
1 (≈ 2.28 µM) | CC(=O)NC[C@H]1CN(c2ccc(-c3ccc([C@H](CO)n4ccnn4)cc3)c(F)c2)C(=O)O1 [Compound 1073, N-{3-[2-Fluoro-4′-(2-hydroxy-1-(R)-[1,2,3]triazol-1-yl-ethyl)-biphenyl-4-yl]-2-oxo-oxazolidin-5-(S)-ylmethyl}-acetamide] | –
4 (≈ 8.14 µM) | CC(=O)NC[C@H]1CN(c2ccc(-c3ccc([C@H](CO)N4CCCC(F)(F)C4)cc3)c(F)c2)C(=O)O1 [Compound 1074, N-(3-{4′-[1-(R)-(3,3-Difluoro-piperidin-1-yl)-2-hydroxy-ethyl]-2-fluoro-biphenyl-4-yl}-2-oxo-oxazolidin-5-(S)-ylmethyl)-acetamide] | –
2 (≈ 4.07 µM) | CC(=O)NC[C@H]1CN(c2ccc(-c3ccc([C@H](O)CN4CCCC(F)(F)C4)cc3)c(F)c2)C(=O)O1 [Compound 1075, N-(3-{4′-[2-(3,3-Difluoro-piperidin-1-yl)-1-(S)-hydroxy-ethyl]-2-fluoro-biphenyl-4-yl}-2-oxo-oxazolidin-5-(S)-ylmethyl)-acetamide] | –
1 (≈ 2.44 µM) | CC(=O)NC[C@H]1CN(c2ccc(-c3ccc(Cn4cccn4)nc3)c(F)c2)C(=O)O1 [Compound 1076, N-{3-[3-Fluoro-4-(6-pyrazol-1-ylmethyl-pyridin-3-yl)-phenyl]-2-oxo-oxazolidin-5-(S)-ylmethyl}-acetamide] | –
4 (≈ 9.77 µM) | CC(=O)NC[C@H]1CN(c2ccc(-c3ccc(Cn4ccnc4)nc3)c(F)c2)C(=O)O1 [Compound 1077, N-{3-[3-Fluoro-4-(6-imidazol-1-ylmethyl-pyridin-3-yl)-phenyl]-2-oxo-oxazolidin-5-(S)-ylmethyl}-acetamide] | –
2 (≈ 4.38 µM) | CSC1=NCCN1Cc1ccc(-c2ccc(N3C[C@H](CNC(C)=O)OC3=O)cc2F)cc1 [Compound 1078, N-{3-[2-Fluoro-4′-(2-methylsulfanyl-4,5-dihydro-imidazol-1-ylmethyl)-biphenyl-4-yl]-2-oxo-oxazolidin-5-(S)-ylmethyl}-acetamide] | –
2 (≈ 4.38 µM) | CSc1nnnn1Cc1ccc(-c2ccc(N3C[C@H](CNC(C)=O)OC3=O)cc2F)cc1 [Compound 1079, N-{3-[2-Fluoro-4′-(5-methylsulfanyl-tetrazol-1-ylmethyl)-biphenyl-4-yl]-2-oxo-oxazolidin-5-(S)-ylmethyl}-acetamide] | –

MIC [1] [µg/mL] | SMILES | MIC [µg/mL]
0.25 (≈ 0.548 µM) | CSc1nnn(Cc2ccc(-c3ccc(N4C[C@H](CNC(C)=O)OC4=O)cc3F)cc2)n1 [Compound 1080, N-{3-[2-Fluoro-4′-(5-methylsulfanyl-tetrazol-2-ylmethyl)-biphenyl-4-yl]-2-oxo-oxazolidin-5-(S)-ylmethyl}-acetamide] | –
2 (≈ 4.25 µM) | CCSc1nnnn1Cc1ccc(-c2ccc(N3C[C@H](CNC(C)=O)OC3=O)cc2F)cc1 [Compound 1081, N-{3-[4′-(5-Ethylsulfanyl-tetrazol-1-ylmethyl)-2-fluoro-biphenyl-4-yl]-2-oxo-oxazolidin-5-(S)-ylmethyl}-acetamide] | –
0.5 (≈ 1.06 µM) | CCSc1nnn(Cc2ccc(-c3ccc(N4C[C@H](CNC(C)=O)OC4=O)cc3F)cc2)n1 [Compound 1082, N-{3-[4′-(5-Ethylsulfanyl-tetrazol-2-ylmethyl)-2-fluoro-biphenyl-4-yl]-2-oxo-oxazolidin-5-(S)-ylmethyl}-acetamide] | –
0.5 (≈ 1.12 µM) | CC(=O)NC[C@H]1CN(c2ccc(-c3ccc(Cn4nnnc4Cl)cc3)c(F)c2)C(=O)O1 [Compound 1083, N-{3-[4′-(5-Chloro-tetrazol-1-ylmethyl)-2-fluoro-biphenyl-4-yl]-2-oxo-oxazolidin-5-(S)-ylmethyl}-acetamide] | –
0.25 (≈ 0.597 µM) | O=C1O[C@@H](Cn2ccnn2)CN1c1ccc(-c2ccc(Cn3ccnc3)cc2)c(F)c1 [Compound 1084, 3-(2-Fluoro-4′-imidazol-1-ylmethyl-biphenyl-4-yl)-5-(R)-[1,2,3]triazol-1-ylmethyl-oxazolidin-2-one] | –
0.5 (≈ 1.19 µM) | O=C1O[C@@H](Cn2ccnn2)CN1c1ccc(-c2ccc(Cn3cccn3)cc2)c(F)c1 [Compound 1085, 3-(2-Fluoro-4′-pyrazol-1-ylmethyl-biphenyl-4-yl)-5-(R)-[1,2,3]triazol-1-ylmethyl-oxazolidin-2-one] | –
– | CC(=O)NC[C@H]1CN(c2ccc(-c3ccc(Cc4c[nH]cn4)cc3)c(F)c2)C(=O)O1 [Compound 1086, N-{3-[2-Fluoro-4′-(1H-imidazol-4-ylmethyl)-biphenyl-4-yl]-2-oxo-oxazolidin-5-(S)-ylmethyl}-acetamide] | 0.5 (≈ 1.22 µM)
4 (≈ 9.36 µM) | CC(=O)NC[C@H]1CN(c2ccc(-c3ccc(CN4CC[C@H](O)C4)cc3)c(F)c2)C(=O)O1 [Compound 1087, N-{3-[2-Fluoro-4′-(3-(S)-hydroxy-pyrrolidin-1-ylmethyl)-biphenyl-4-yl]-2-oxo-oxazolidin-5-(S)-ylmethyl}-acetamide] | –
4 (≈ 9.36 µM) | CC(=O)NC[C@H]1CN(c2ccc(-c3ccc(CN4CC[C@@H](O)C4)cc3)c(F)c2)C(=O)O1 [Compound 1088, N-{3-[2-Fluoro-4′-(3-(R)-hydroxy-pyrrolidin-1-ylmethyl)-biphenyl-4-yl]-2-oxo-oxazolidin-5-(S)-ylmethyl}-acetamide] | –
2 (≈ 5.03 µM) | CC(=O)NC[C@H]1CN(c2ccc(-c3ccc(CN4CCC4)cc3)c(F)c2)C(=O)O1 [Compound 1090, N-[3-(4′-Azetidin-1-ylmethyl-2-fluoro-biphenyl-4-yl)-2-oxo-oxazolidin-5-(S)-ylmethyl]-acetamide] | –
2 (≈ 4.69 µM) | CC(=O)NC[C@H]1CN(c2ccc(-c3ccc(CN4CC[C@@H](N)C4)cc3)c(F)c2)C(=O)O1 [Compound 1091, N-{3-[4′-(3-(R)-Amino-pyrrolidin-1-ylmethyl)-2-fluoro-biphenyl-4-yl]-2-oxo-oxazolidin-5-(S)-ylmethyl}-acetamide] | –
4 (≈ 9.38 µM) | CC(=O)NC[C@H]1CN(c2ccc(-c3ccc(CN4CC[C@H](N)C4)cc3)c(F)c2)C(=O)O1 [Compound 1092, N-{3-[4′-(3-(S)-Amino-pyrrolidin-1-ylmethyl)-2-fluoro-biphenyl-4-yl]-2-oxo-oxazolidin-5-(S)-ylmethyl}-acetamide] | –
1 (≈ 2.25 µM) | CC(=O)NC[C@H]1CN(c2ccc(-c3ccc(CN4CCC(F)CC4)cc3)c(F)c2)C(=O)O1 [Compound 1094, N-{3-[2-Fluoro-4′-(4-fluoro-piperidin-1-ylmethyl)-biphenyl-4-yl]-2-oxo-oxazolidin-5-(S)-ylmethyl}-acetamide] | –
2 (≈ 4.33 µM) | CC(=O)NC[C@H]1CN(c2ccc(-c3ccc(CN4CCCC(F)(F)C4)cc3)c(F)c2)C(=O)O1 [Compound 1097, N-{3-[4′-(3,3-Difluoro-piperidin-1-ylmethyl)-2-fluoro-biphenyl-4-yl]-2-oxo-oxazolidin-5-(S)-ylmethyl}-acetamide] | –
2 (≈ 3.73 µM) | CC(=O)NC[C@H]1CN(c2ccc(-c3ccc(Cn4cnc5c(NCCCF)ncnc54)cc3)c(F)c2)C(=O)O1 [Compound 1098, N-(3-{2-Fluoro-4′-[6-(3-fluoro-propylamino)-purin-9-ylmethyl]-biphenyl-4-yl}-2-oxo-oxazolidin-5-(S)-ylmethyl)-acetamide] | –
2 (≈ 3.85 µM) | CC(=O)NC[C@H]1CN(c2ccc(-c3ccc(Cn4cnc5c(NCCO)ncnc54)cc3)c(F)c2)C(=O)O1 [Compound 1099, N-(3-{2-Fluoro-4′-[6-(2-hydroxy-ethylamino)-purin-9-ylmethyl]-biphenyl-4-yl}-2-oxo-oxazolidin-5-(S)-ylmethyl)-acetamide] | –
